Assay results taken from patent US9701638B2, “Therapeutic hydroxyquinolones” (RUTGERS, THE STATE UNIVERSITY OF NEW JERSEY, priority 2012, dated 2017).

target: Pandemic 2009 H1N1 influenza A endonuclease (PAN domain, residues 1-204) (Influenza A virus (strain swl A/California/04/2009 H1N1), UniProt C3W5S0); assay: Endonuclease assay (FAM/MGBNFQ fluorescent probe cleavage by PAN); assay type: biochemical, influenza A virus (pandemic 2009 H1N1); conditions: endonuclease inhibition; 25 nM endonuclease, 50 nM probe, 37 degrees Celsius, fluorescence change over time
From the text: A TaqMan-like oligonucleotide was used containing a 6-carboxy-fluorescein (FAM) fluorophore at the 5′-end followed by 19 nucleotides and a minor groove binding non-fluorescent quencher (MGBNFQ, Applied Biosystems) at the 3′-end. When excited by light at a wavelength of 488 nm, MGBNFQ quenches the fluorescence of FAM via fluorescence resonance energy transfer. If the endonuclease cleaves the oligonucleotide, the quencher is no longer coupled to the fluorophore, and therefore, FAM fluoresces. This assay can be performed in a high-throughput (e.g. 96 well plate) format.
The reaction mixture is set up as a master mix with the buffer, probe, and protein on ice. […] Varioskan Fluorometer (Thermo Scientific), set to an excitation of 488 nm and emission of 518 nm, is used to measure the fluorescence of the samples at 37 degrees Celsius. Fluorescence is measured at various time points (5, 120, and 240 minutes) during the 37 degrees Celsius incubation. Activity/inhibition is calculated based on the change in fluorescence over time using Prism Graphpad non-linear regression analysis.

| Compound | IC50 [µM] |
| --- | --- |
| O=c1[nH]c2ccccc2c(Br)c1O [Example 2, 4-bromo-3-hydroxyquinolin-2(1H)-one] | 53 |
| O=c1[nH]c2cccc(Br)c2cc1O [Example 3, 5-bromo-3-hydroxyquinolin-2(1H)-one] | 12.2 |
| O=c1[nH]c2ccc(Br)cc2cc1O [Example 4, 6-bromo-3-hydroxyquinolin-2(1H)-one] | 7.4 |
| O=c1[nH]c2cc(Br)ccc2cc1O [Example 5, 7-bromo-3-hydroxyquinolin-2(1H)-one] | 7.6 |
| O=c1[nH]c2c(Br)cccc2cc1O [Example 6, 8-bromo-3-hydroxyquinolin-2(1H)-one] | 10.6 |
| O=c1[nH]c2ccccc2c(-c2ccc(F)cc2)c1O [Example 7] | 10.8 |
| O=c1[nH]c2cccc(-c3ccc(F)cc3)c2cc1O [Example 8, 5-(4-fluorophenyl)-3-hydroxyquinolin-2(1H)-one] | 3.3 |
| O=c1[nH]c2ccc(-c3ccc(F)cc3)cc2cc1O [Example 9, 6-(4-fluorophenyl)-3-hydroxyquinolin-2(1H)-one] | 0.56 |
| O=c1[nH]c2cc(-c3ccc(F)cc3)ccc2cc1O [Example 10, 7-(4-fluorophenyl)-3-hydroxyquinolin-2(1H)-one] | 0.56 |
| O=c1[nH]c2c(-c3ccc(F)cc3)cccc2cc1O [Example 11, 8-(4-fluorophenyl)-3-hydroxyquinolin-2(1H)-one] | 4.7 |
| O=c1[nH]c2cc(-c3ccc(F)cc3)ccc2c(Br)c1O [Example 12, 4-bromo-7-(4-fluorophenyl)-3-hydroxyquinolin-2(1H)-one] | 1.1 |
| O=c1[nH]c2ccccc2c(-c2ccccc2)c1O [Example 13, 4-Phenyl-3-hydroxyquinolin-2(1H)-one] | > 20 |
| Cc1c(O)c(=O)[nH]c2ccccc12 [Example 14, 4-Methyl-3-hydroxyquinolin-2(1H)— one] | > 100 |
| O=c1[nH]c2cc(-c3ccc(F)cc3)ccc2c(-c2ccccc2)c1O [Example 15, 4-Phenyl-7-(4-fluorophenyl)-3-hydroxyquinolin-2(1H)-one] | 2 |
| Cc1c(O)c(=O)[nH]c2cc(-c3ccc(F)cc3)ccc12 [Example 16] | 13.2 |
